Two compounds from patent publication US4806532A, “Inhibition of epithelial phosphate transport” (Mayo Foundation for Medical Education and Research, priority 1985, dated 1989) can be followed below.

Broadly, the Ki is a measure of affinity in units of concentration, obtained from inhibition or displacement. A high value points to a looser hold on the target.

Counter-ions that a name gives are not always drawn. Like-named read-outs stand apart in the source and are kept apart here. Bounds are passed on as bounds.

Assay [1] deals with D-[^3 H]--glucose uptake by BBMV from rat small intestine. Nature of the assay: D-[3H]-glucose uptake by intestinal BBMV. The format is biochemical. Particulars: 1 mM; for D-[3H]-glucose uptake 120 min: control 57 ± 2; for D-[3H]-glucose uptake 15 sec: control 67 ± 0.5. The method, then:
The intestinal BBMV fractions were prepared from mucosa of rat small intestine of rats using the modified magnesium- precipitation method as described by B. Steiger and H. Murer [Eur. J. Biochem., 135, 95 (1983)]. This intestinal BBMV fraction is analogous to the BBMV fraction isolated from kidney. […]

The subject of assay [2] is intestinal BBM alkaline phosphatase. Nature of the assay: Effect on intestinal BBM alkaline phosphatase (data not shown). The format is biochemical, rat.
In assay [3] the test system is ^14 C--succinate uptake by BBMV from rat small intestine. As to the kind of experiment: 14C-succinate uptake by intestinal BBMV. The format is biochemical. Particulars: 1 mM; for 14C-succinate uptake 120 min: control 78 ± 3; for 14C-succinate uptake 15 sec: control 118 ± 7.
Assay [4] deals with L-[^3 H]--proline uptake by BBMV from rat small intestine. Nature of the assay: L-[3H]-proline uptake by intestinal BBMV. It counts as biochemical. To be noted: 1 mM; for L-[3H]-proline uptake 15 sec: control 27 ± 0.2; for L-[3H]-proline uptake 120 min: control 53 ± 2.
The target in the next assay is T1, Na-Pi cotransporter (Rattus norvegicus, UniProt Q06496).
T1 construct: from tissue; host or cells: rat renal cortex, brush border membrane vesicles
T1 sequence (Q06496 1-637): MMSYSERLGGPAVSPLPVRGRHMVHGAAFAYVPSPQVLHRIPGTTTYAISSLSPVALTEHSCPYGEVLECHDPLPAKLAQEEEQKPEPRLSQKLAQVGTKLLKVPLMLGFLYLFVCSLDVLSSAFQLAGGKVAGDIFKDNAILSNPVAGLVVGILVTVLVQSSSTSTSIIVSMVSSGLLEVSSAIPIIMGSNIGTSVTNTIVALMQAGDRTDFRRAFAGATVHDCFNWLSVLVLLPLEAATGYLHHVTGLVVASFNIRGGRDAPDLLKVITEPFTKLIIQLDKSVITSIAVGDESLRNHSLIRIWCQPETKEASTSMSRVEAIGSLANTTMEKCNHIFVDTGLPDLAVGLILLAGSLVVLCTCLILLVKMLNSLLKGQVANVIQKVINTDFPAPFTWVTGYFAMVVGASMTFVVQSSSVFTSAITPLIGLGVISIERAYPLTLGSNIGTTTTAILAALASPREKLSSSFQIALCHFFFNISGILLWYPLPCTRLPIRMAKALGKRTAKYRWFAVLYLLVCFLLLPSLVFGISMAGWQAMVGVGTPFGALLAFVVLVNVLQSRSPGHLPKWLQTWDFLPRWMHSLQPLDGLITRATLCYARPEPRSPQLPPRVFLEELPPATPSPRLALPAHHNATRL
Nature of the assay: Na+-gradient-dependent 32Pi uptake by renal cortical BBMV (rapid filtration). It counts as biochemical. To be noted: for 32Pi Uptake 120 min / 32Pi Uptake 20 sec: 5 min preincubation; for 32Pi Uptake 120 min: equilibrium; for 32Pi Uptake 20 sec: mean ± SE of 3-5 experiments. The method, then:
The brush border membrane vesicles (BBMV) were prepared from renal cortical tissue of adult male Sprague-Dawley rats of an average body weight of about 220 grams. Rats were fed ad libitum standard rat chow containing 0.7% Pi and had free access to distilled water. Rats were sacrificed under anesthesia and dissected renal cortical tissue was used for preparation of BBMV fraction by the divalent cation-precipitation procedure, employed and described in detail in J. Clin. Invest., 67, 1347 (1981) and J. Biol. Chem., 258, 5695 (1983), with the following modifications: (a) MgCl2 instead of CaCl2 was added to crude homogenate (final concentration 10 mM MgCl2) to precipitate membranes other than BBMV; (b) in the final step, BBMV were washed and equilibrated in a medium of pH=7.5, instead of pH=8.5. The enrichment and specific activities of typical BBM enzymes alkaline phosphatase (APases), γ-glutyamyl transferase (γ-GTT), leucineaminopeptidase (LAP) and maltase with use of these modifications were similar as in BBMV fractions prepared in our previous studies. As a final step in the preparative procedure, the BBMV fraction was washed and resuspended in a medium containing 300 mM mannitol and 5 mM Tris-HEPES adjusted to pH=t.5, referred to as "MTH-medium," unless specified otherwise. The analogous BBMV fractions, using the same procedure, were prepared from renal cortices of mongrel dogs, albino mice and New Zealand albino rabbits.
The BBMV uptake of ^32 Pi, D-[^3 H]-glucose, L-[^3 H]-proline and ^22 Na^+ was measured by means of a rapid filtration technique, as described in J. Clin. Invest., 67, 1347 (1981) and Am. J. Physiol., 246, F133-F139 (1984). Also, unless specified otherwise, the medium for the solute uptake assay consisted of following compounds (in final concentrations): 100 mM mannitol, 100 mM NaCl (or 100 mM KC1) and 5 mM Tris-HEPES (pH=7.5) and eitehr 0.1 mM K2 H^32 PO4, or 0.05 mM D-[^3 H]-glucose, or 0.025 mM L-[^3 H]-proline. IN the ^22 Na^+ uptake studies, the assay medium contained 100 mM ^22 NaCl (^22 NaCl about […] per tube), 100 mM mannitol and 5 mM Tris-HEPES (pH 7.5).
In most experiments, the Na^+ -gradient-dependent ^32 Pi uptake in the concentrative "uphill" phase was measured at 20 seconds period. Since Na^+ -independent Pi uptake in this time period was quantitatively minor component (<5%) of the Na^+ -gradient-dependent Pi uptake, it was not routinely subtracted.

[5] abbreviates: 1 mM, initial uptake at 20 sec, rat kidney cortex BBMV, read-out: Δ% (inhibition as percent decrease from control) of Na+-gradient-dependent 32Pi uptake.

Regarding `O=C(O)CP(=O)(O)O` [PAA, phosphonoacetic acid], in assay [1], the “D-[3H]-glucose uptake 120 min” value was found to be 61 ± 3 pmoles/mg protein and the “D-[3H]-glucose uptake 15 sec” value is reported as 68 ± 3 pmoles/mg protein. Further, the “inhibition of intestinal BBM alkaline phosphatase” value in assay [2] was “neither TPFA or PAA inhibited”. Moreover, in assay [3], the “14C-succinate uptake 120 min” value worked out at 89 ± 3 pmol/mg protein and the “14C-succinate uptake 15 sec” value amounted to 127 ± 2 pmol/mg protein. In addition, in assay [4], the “L-[3H]-proline uptake 15 sec” value stood at 27 ± 1.0 pmoles/mg protein and the “L-[3H]-proline uptake 120 min” value turned out to be 55 ± 1.0 pmoles/mg protein. Moreover, at Na-Pi cotransporter (0.2 mM), the “Δ% ratio of uptake at uphill phase (20 sec) and equilibrium phase (120 min)” value (“Δ% ratio of uptake at uphill phase” below) is “+305 ± 101%”; the “32Pi Uptake 120 min” value was 320 ± 80 pmoles/mg protein; the “32Pi Uptake 20 sec” value amounted to 1057 ± 89 pmoles/mg protein. In addition, at Na-Pi cotransporter (1.0 mM), the “Δ% ratio of uptake at uphill phase” value is “+331 ± 86%”; the “32Pi Uptake 120 min” value stood at 274 ± 51 pmoles/mg protein; the “32Pi Uptake 20 sec” value is reported as 1019 ± 94 pmoles/mg protein. Also, on Na-Pi cotransporter (setting [5]), the inhibition at 1000 µM is -18%. For the same compound, on Na-Pi cotransporter (5.0 mM), the “Δ% ratio of uptake at uphill phase” value was “+261 ± 78%”; the “32Pi Uptake 120 min” value was 269 ± 52 pmoles/mg protein; the “32Pi Uptake 20 sec” value was determined as 876 ± 68 pmoles/mg protein.

Turning to `O=C(O)P(=O)(O)O` [TPFA, Phosphonoformic acid, trisodium salt hexahydrate], in assay [1], the “D-[3H]-glucose uptake 120 min” value is on record as 57 ± 2 pmoles/mg protein and the “D-[3H]-glucose uptake 15 sec” value worked out at 69 ± 2 pmoles/mg protein. The “inhibition of intestinal BBM alkaline phosphatase” value in assay [2] is listed as “neither TPFA or PAA inhibited”. Also, in assay [3], the “14C-succinate uptake 120 min” value was found to be 81 ± 1 pmol/mg protein and the “14C-succinate uptake 15 sec” value was 125 ± 3 pmol/mg protein. Moreover, in assay [4], the “L-[3H]-proline uptake 15 sec” value is listed as 27 ± 0.4 pmoles/mg protein and the “L-[3H]-proline uptake 120 min” value came to 54 ± 0.1 pmoles/mg protein. Further, at Na-Pi cotransporter, the “effect on intravesicular volume of BBMV” value was “did not alter” and the “nature of the inhibitory effect on Pi uptake” value was “competitive”. For the same compound, on Na-Pi cotransporter (0.2 mM), the “Δ% ratio of uptake at uphill phase” value was “+262 ± 44%”; the “32Pi Uptake 120 min” value stood at 264 ± 53 pmoles/mg protein; the “32Pi Uptake 20 sec” value came to 869 ± 45 pmoles/mg protein. Besides, on Na-Pi cotransporter (1.0 mM), the “Δ% ratio of uptake at uphill phase” value is listed as “+137 ± 27%”; the “32Pi Uptake 120 min” value stood at 248 ± 47 pmoles/mg protein; the “32Pi Uptake 20 sec” value was determined as 541 ± 39 pmoles/mg protein. In addition, at Na-Pi cotransporter (setting [5]), the inhibition at 1000 µM is -53%. On Na-Pi cotransporter (5.0 mM), the “Δ% ratio of uptake at uphill phase” value is on record as below 0.0%; the “32Pi Uptake 120 min” value stood at 239 ± 44 pmoles/mg protein; the “32Pi Uptake 20 sec” value amounted to 153 ± 28 pmoles/mg protein. In addition, at Na-Pi cotransporter (20 s, Rat, 1 mM TPFA, read-out: percent decrease of 20 sec 32Pi-uptake relative to control value), the inhibition at 1000 µM turned out to be 59.1%. Besides, the inhibition at 5000 µM at Na-Pi cotransporter (20 s, Rat, 5 mM TPFA, read-out: percent decrease of 20 sec 32Pi-uptake relative to control value) amounted to 78%. Besides, the “effect on 32Pi uptake by BBMV in the absence of Na+” value on Na-Pi cotransporter (NaCl replaced by KCl, 1 mM TPFA, FIG. 1) is “had no effect”. Moreover, the “32Pi-uptake 120 min” value on Na-Pi cotransporter (Rat, 1 mM TPFA, control 361 ± 9) turned out to be 359 ± 8 pmoles Pi/mg protein/time. For the same compound, the “32Pi-uptake 20 sec” value at Na-Pi cotransporter (Rat, 1 mM TPFA, control 1570 ± 31) is reported as 783 ± 6 pmoles Pi/mg protein/time. On Na-Pi cotransporter (Rat, 5 mM TPFA), the “32Pi-uptake 20 sec” value is reported as 344 ± 7 pmoles Pi/mg protein/time and the “32Pi-uptake 120 min” value is recorded as 379 ± 34 pmoles Pi/mg protein/time. On Na-Pi cotransporter (competitive inhibition, renal cortical BBMV), the Ki was 460 µM. Moreover, the “effect on 32Pi uptake under Na+ equilibrium conditions [Na+i = Na+o]” value on Na-Pi cotransporter (initial fast uptake phase (0-60 seconds), data not shown) is recorded as “inhibited”.
